Measured values reported in ChEMBL document CHEMBL1932976, “Synthesis of novel 1,3-diaryl pyrazole derivatives bearing rhodanine-3-fatty acid moieties as potential antibacterial agents” (2012).
In brackets after ≈: the same amount, converted by molar mass.

Key:
Format in all cases: functional
[1] = test system: Staphylococcus aureus; experiment: Antibacterial activity against Staphylococcus aureus RN4220 after 20 hrs by twofold serial dilution technique; conditions: RN4220, 20 h
[2] = test system: Staphylococcus aureus; experiment: Antibacterial activity against Staphylococcus aureus KCTC 503 after 20 hrs by twofold serial dilution technique; conditions: KCTC 503, 20 h
[3] = test system: Escherichia coli; experiment: Antibacterial activity against Escherichia coli CCARM 1924 after 20 hrs by twofold serial dilution technique; conditions: CCARM 1924, 20 h
[4] = test system: Escherichia coli; experiment: Antibacterial activity against Escherichia coli CCARM 1356 after 20 hrs by twofold serial dilution technique; conditions: CCARM 1356, 20 h
[5] = test system: Staphylococcus aureus; experiment: Antibacterial activity against quinolone-resistant Staphylococcus aureus CCARM 3519 after 20 hrs by twofold serial dilution technique; conditions: CCARM 3519, 20 h
[6] = test system: Staphylococcus aureus; experiment: Antibacterial activity against methicillin-resistant Staphylococcus aureus CCARM 3506 after 20 hrs by twofold serial dilution technique; conditions: CCARM 3506, 20 h
[7] = test system: Staphylococcus aureus; experiment: Antibacterial activity against methicillin-resistant Staphylococcus aureus CCARM 3167 after 20 hrs by twofold serial dilution technique; conditions: CCARM 3167, 20 h
[8] = test system: Staphylococcus aureus; experiment: Antibacterial activity against quinolone-resistant Staphylococcus aureus CCARM 3505 after 20 hrs by twofold serial dilution technique; conditions: CCARM 3505, 20 h

Row | SMILES | MIC [1] [µg/mL] | MIC [2] [µg/mL] | MIC [3] [µg/mL] | MIC [4] [µg/mL] | MIC [5] [µg/mL] | MIC [6] [µg/mL] | MIC [7] [µg/mL] | MIC [8] [µg/mL]
1 | O=C(O)CCCCCN1C(=O)/C(=C/c2cn(-c3ccccc3)nc2-c2ccc(Cl)cc2)SC1=S | > 64 | > 64 | > 64 | > 64 | – | – | – | –
2 | O=C(O)CCCCCN1C(=O)/C(=C/c2cn(-c3ccccc3)nc2-c2ccc(Cl)cc2Cl)SC1=S | 32 (≈ 58.6 µM) | 8 (≈ 14.6 µM) | > 64 | > 64 | 4 (≈ 7.32 µM) | 32 (≈ 58.6 µM) | 4 (≈ 7.32 µM) | 32 (≈ 58.6 µM)
3 | O=C(O)CCCCN1C(=O)/C(=C/c2cn(-c3ccccc3)nc2-c2ccc(Cl)cc2Cl)SC1=S | 4 (≈ 7.51 µM) | 4 (≈ 7.51 µM) | > 64 | > 64 | 2 (≈ 3.76 µM) | 2 (≈ 3.76 µM) | 2 (≈ 3.76 µM) | 2 (≈ 3.76 µM)
4 | CCn1cc(C(=O)O)c(=O)c2cc(F)c(N3CCNCC3)cc21 [NORFLOXACIN] | 2 (≈ 6.26 µM) | 2 (≈ 6.26 µM) | 16 (≈ 50.1 µM) | 16 (≈ 50.1 µM) | > 64 | 4 (≈ 12.5 µM) | 8 (≈ 25.1 µM) | > 64
5 | O=C(O)CCN1C(=O)/C(=C/c2cn(-c3ccccc3)nc2-c2ccc(Cl)cc2Cl)SC1=S | 8 (≈ 15.9 µM) | 4 (≈ 7.93 µM) | > 64 | > 64 | 4 (≈ 7.93 µM) | 4 (≈ 7.93 µM) | 4 (≈ 7.93 µM) | 4 (≈ 7.93 µM)
6 | O=C(O)CN1C(=O)/C(=C/c2cn(-c3ccccc3)nc2-c2ccccc2)SC1=S | 64 (≈ 152 µM) | 64 (≈ 152 µM) | > 64 | > 64 | 32 (≈ 75.9 µM) | 32 (≈ 75.9 µM) | 32 (≈ 75.9 µM) | 32 (≈ 75.9 µM)
7 | O=C(O)CCCN1C(=O)/C(=C/c2cn(-c3ccccc3)nc2-c2ccc(Cl)cc2Cl)SC1=S | 8 (≈ 15.4 µM) | 4 (≈ 7.72 µM) | > 64 | > 64 | 4 (≈ 7.72 µM) | 4 (≈ 7.72 µM) | 4 (≈ 7.72 µM) | 4 (≈ 7.72 µM)
8 | O=C(O)CCCCN1C(=O)/C(=C/c2cn(-c3ccccc3)nc2-c2ccc(Cl)cc2)SC1=S | > 64 | > 64 | > 64 | > 64 | – | – | – | –
9 | Cc1ccc(-c2nn(-c3ccccc3)cc2/C=C2\SC(=S)N(CC(=O)O)C2=O)cc1 | 16 (≈ 36.7 µM) | > 64 | > 64 | > 64 | 64 (≈ 147 µM) | 16 (≈ 36.7 µM) | 16 (≈ 36.7 µM) | 16 (≈ 36.7 µM)
10 | O=C(O)CCCN1C(=O)/C(=C/c2cn(-c3ccccc3)nc2-c2ccc(Cl)cc2)SC1=S | 8 (≈ 16.5 µM) | 4 (≈ 8.26 µM) | > 64 | > 64 | 4 (≈ 8.26 µM) | 4 (≈ 8.26 µM) | 4 (≈ 8.26 µM) | 4 (≈ 8.26 µM)
11 | Cc1ccc(-c2nn(-c3ccccc3)cc2/C=C2\SC(=S)N(CC(=O)O)C2=O)c(C)c1 | 16 (≈ 35.6 µM) | 16 (≈ 35.6 µM) | > 64 | > 64 | 16 (≈ 35.6 µM) | 16 (≈ 35.6 µM) | 16 (≈ 35.6 µM) | 16 (≈ 35.6 µM)
12 | O=C(O)CN1C(=O)/C(=C/c2cn(-c3ccccc3)nc2-c2ccc([N+](=O)[O-])cc2)SC1=S | > 64 | > 64 | > 64 | > 64 | – | – | – | –
13 | O=C(O)CN1C(=O)/C(=C/c2cn(-c3ccccc3)nc2-c2ccc(F)cc2)SC1=S | > 64 | > 64 | > 64 | > 64 | – | – | – | –
14 | O=C(O)CN1C(=O)/C(=C/c2cn(-c3ccccc3)nc2-c2ccc3ccccc3c2)SC1=S | > 64 | > 64 | > 64 | > 64 | – | – | – | –
15 | O=C(O)CN1C(=O)/C(=C/c2cn(-c3ccccc3)nc2-c2cccc(Cl)c2)SC1=S | 16 (≈ 35.1 µM) | > 64 | > 64 | > 64 | 64 (≈ 140 µM) | 32 (≈ 70.2 µM) | 16 (≈ 35.1 µM) | 16 (≈ 35.1 µM)
16 | COc1cccc(-c2nn(-c3ccccc3)cc2/C=C2\SC(=S)N(CC(=O)O)C2=O)c1 | 64 (≈ 142 µM) | 64 (≈ 142 µM) | > 64 | > 64 | 64 (≈ 142 µM) | 64 (≈ 142 µM) | 32 (≈ 70.9 µM) | 64 (≈ 142 µM)
17 | COc1ccc(-c2nn(-c3ccccc3)cc2/C=C2\SC(=S)N(CC(=O)O)C2=O)cc1 | > 64 | > 64 | > 64 | > 64 | – | – | – | –
18 | Cc1onc(-c2ccccc2)c1C(=O)N[C@@H]1C(=O)N2[C@@H]1SC(C)(C)[C@@H]2C(=O)O [OXACILLIN] | 1 (≈ 2.49 µM) | 1 (≈ 2.49 µM) | > 64 | > 64 | 1 (≈ 2.49 µM) | > 64 | > 64 | 1 (≈ 2.49 µM)
19 | O=C(O)CN1C(=O)/C(=C/c2cn(-c3ccccc3)nc2-c2ccc(Br)cc2)SC1=S | 8 (≈ 16 µM) | 8 (≈ 16 µM) | > 64 | > 64 | 8 (≈ 16 µM) | 8 (≈ 16 µM) | 8 (≈ 16 µM) | 8 (≈ 16 µM)
20 | O=C(O)CCN1C(=O)/C(=C/c2cn(-c3ccccc3)nc2-c2ccc(Cl)cc2)SC1=S | 8 (≈ 17 µM) | 16 (≈ 34 µM) | > 64 | > 64 | 8 (≈ 17 µM) | 4 (≈ 8.51 µM) | 4 (≈ 8.51 µM) | 4 (≈ 8.51 µM)
21 | O=C(O)CN1C(=O)/C(=C/c2cn(-c3ccccc3)nc2-c2ccc(Cl)cc2Cl)SC1=S | 8 (≈ 16.3 µM) | 8 (≈ 16.3 µM) | > 64 | > 64 | 8 (≈ 16.3 µM) | 4 (≈ 8.16 µM) | 4 (≈ 8.16 µM) | 8 (≈ 16.3 µM)
22 | O=C(O)CN1C(=O)/C(=C/c2cn(-c3ccccc3)nc2-c2ccc(Cl)cc2)SC1=S | 8 (≈ 17.5 µM) | 8 (≈ 17.5 µM) | > 64 | > 64 | 16 (≈ 35.1 µM) | 8 (≈ 17.5 µM) | 8 (≈ 17.5 µM) | 8 (≈ 17.5 µM)
23 | COc1ccccc1-c1nn(-c2ccccc2)cc1/C=C1\SC(=S)N(CC(=O)O)C1=O | > 64 | > 64 | > 64 | > 64 | – | – | – | –
24 | O=C(O)CN1C(=O)/C(=C/c2cn(-c3ccccc3)nc2-c2ccccc2Cl)SC1=S | 32 (≈ 70.2 µM) | 32 (≈ 70.2 µM) | > 64 | > 64 | 32 (≈ 70.2 µM) | 32 (≈ 70.2 µM) | 16 (≈ 35.1 µM) | 32 (≈ 70.2 µM)
25 | O=C(O)CN1C(=O)/C(=C/c2cn(-c3ccccc3)nc2-c2ccccc2F)SC1=S | 64 (≈ 146 µM) | 64 (≈ 146 µM) | > 64 | > 64 | 64 (≈ 146 µM) | 64 (≈ 146 µM) | 64 (≈ 146 µM) | 64 (≈ 146 µM)
26 | O=C(O)CN1C(=O)/C(=C/c2cn(-c3ccccc3)nc2-c2cccc(Br)c2)SC1=S | 8 (≈ 16 µM) | 32 (≈ 63.9 µM) | > 64 | > 64 | 64 (≈ 128 µM) | 16 (≈ 32 µM) | 8 (≈ 16 µM) | 16 (≈ 32 µM)
